The target in one test is CDK2/Cyclin E1 (Homo sapiens, UniProt P24941). Briefly: CDK2/Cyclin E1 Biochemical Assay (TR-FRET), 0.060 mM ATP. As to conditions: 0.15 μM Rb (Ser780)-biotin substrate, pH7.0, 60 min preincubation, 120 min reaction, room temperature. In a few lines: (§1)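 Inhibitor concentrations up to 10 μM were preincubated with each cyclin–kinase complex for 60 minutes before ATP and biotinylated Rb (Ser780) substrate (0.15 μM) were added. After 120 minutes at room temperature, phosphorylation was quantified by HTRF and IC50 values were fitted with a four-parameter logistic equation.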

For another test, the target named is CDK1/Cyclin B1 (Homo sapiens, UniProt P06493). Briefly: CDK1/Cyclin B1 Biochemical Assay (TR-FRET), 0.015 mM ATP. As to conditions: 0.15 μM Rb (Ser780)-biotin substrate, pH7.0, 60 min preincubation, 120 min reaction, room temperature. In a few lines:
as §1
(TR-FRET usually uses a lanthanide donor and a delayed reading to cut background.)

As a reminder, the IC50 is the concentration that inhibits the measured activity by half. Low values mean greater potency in that assay, high ones weaker potency in that assay.

CDK1/Cyclin B1, sequence (P06493 whole entry): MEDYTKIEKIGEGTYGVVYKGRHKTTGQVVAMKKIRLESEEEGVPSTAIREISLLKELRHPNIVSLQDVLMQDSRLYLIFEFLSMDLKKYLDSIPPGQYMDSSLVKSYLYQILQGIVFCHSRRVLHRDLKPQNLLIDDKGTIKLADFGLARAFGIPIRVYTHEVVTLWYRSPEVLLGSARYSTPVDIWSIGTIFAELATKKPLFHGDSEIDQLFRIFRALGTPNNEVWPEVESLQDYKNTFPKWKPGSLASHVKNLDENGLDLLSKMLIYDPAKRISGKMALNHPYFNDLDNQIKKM
CDK1/Cyclin B1, sequence (P14635 whole entry partner): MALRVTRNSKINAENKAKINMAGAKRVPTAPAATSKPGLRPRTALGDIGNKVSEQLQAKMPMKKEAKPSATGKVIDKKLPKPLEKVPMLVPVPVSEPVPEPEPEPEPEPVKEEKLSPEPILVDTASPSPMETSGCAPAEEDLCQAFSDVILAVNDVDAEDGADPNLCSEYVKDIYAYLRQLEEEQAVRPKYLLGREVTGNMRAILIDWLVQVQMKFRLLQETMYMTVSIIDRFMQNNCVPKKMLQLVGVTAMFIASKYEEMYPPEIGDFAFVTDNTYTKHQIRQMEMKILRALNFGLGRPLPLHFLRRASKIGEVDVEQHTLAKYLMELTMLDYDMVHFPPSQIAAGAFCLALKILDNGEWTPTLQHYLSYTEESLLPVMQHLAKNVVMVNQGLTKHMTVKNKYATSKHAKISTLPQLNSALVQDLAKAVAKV

Consider `CC[C@H](C)NC(=O)O[C@H]1CC[C@@H](c2cc(Nc3ccc4c(c3F)CN(C)S4(=O)=O)n[nH]2)C1` (single isomer, unassigned) [Example 123a], for which the results for the IC50 against CDK2/Cyclin E1 and against CDK1/Cyclin B1 were 5.2 nM and 613 nM, respectively.

Regarding `CC[C@H](C)NC(=O)O[C@H]1CC[C@@H](c2cc(Nc3ccc4c(c3F)CN(C)S4(=O)=O)n[nH]2)C1` (single isomer, unassigned) [Example 123b], the IC50 against CDK2/Cyclin E1 is 2.6 nM; at CDK1/Cyclin B1 it was 219 nM.

With `CC(C)NC(=O)O[C@H]1CC[C@@H](c2cc(Nc3ccc4c(c3F)CN(CCO)S4(=O)=O)n[nH]2)C1` (single isomer, unassigned) [Example 125a, cis-3-(3-((4-fluoro-2-(2-hydroxyethyl)-1,1-dioxido-2,3-dihydrobenzo[d]isothiazol-5-yl)amino)-1H-pyrazol-5-yl)cyclopentyl isopropylcarbamate], the IC50 against CDK2/Cyclin E1 worked out at 12 nM; at CDK1/Cyclin B1, 1220 nM.

As for `CC(C)NC(=O)O[C@H]1CC[C@@H](c2cc(Nc3ccc4c(c3F)CN(CCO)S4(=O)=O)n[nH]2)C1` (single isomer, unassigned) [Example 125b, cis-3-(3-((4-fluoro-2-(2-hydroxyethyl)-1,1-dioxido-2,3-dihydrobenzo[d]isothiazol-5-yl)amino)-1H-pyrazol-5-yl)cyclopentyl isopropylcarbamate], the IC50 against CDK2/Cyclin E1 turned out to be 4.9 nM; against CDK1/Cyclin B1, 341 nM.

For the compound `CC1(NC(=O)O[C@H]2CC[C@@H](c3cc(Nc4ccc5c(c4F)CN(CCO)S5(=O)=O)n[nH]3)C2)CC1` (single isomer, unassigned) [Example 128a, cis-3-(3-((4-fluoro-2-(2-hydroxyethyl)-1,1-dioxido-2,3-dihydrobenzo[d]isothiazol-5-yl)amino)-1H-pyrazol-5-yl)cyclopentyl(1-methylcyclopropyl)carbamate], the IC50 came to 2.7 nM on CDK2/Cyclin E1 and 192 nM against CDK1/Cyclin B1.

In the case of `CC1(NC(=O)O[C@H]2CC[C@@H](c3cc(Nc4ccc5c(c4F)CN(CCO)S5(=O)=O)n[nH]3)C2)CC1` (single isomer, unassigned) [Example 128b, cis-3-(3-((4-fluoro-2-(2-hydroxyethyl)-1,1-dioxido-2,3-dihydrobenzo[d]isothiazol-5-yl)amino)-1H-pyrazol-5-yl)cyclopentyl(1-methylcyclopropyl)carbamate], the IC50 against CDK2/Cyclin E1 was 2.5 nM; on CDK1/Cyclin B1, 96 nM.

For the compound `[2H]C([2H])([2H])N1Cc2c(ccc(Nc3cc([C@@H]4CC[C@H](OC(=O)NC(C)C)C4)[nH]n3)c2F)S1(=O)=O` (single isomer, unassigned) [Example 129a, cis-3-(3-((4-fluoro-2-(methyl-d3)-1,1-dioxido-2,3-dihydrobenzo[d]isothiazol-5-yl)amino)-1H-pyrazol-5-yl)cyclopentyl isopropylcarbamate], the figures for the IC50 against CDK2/Cyclin E1 and on CDK1/Cyclin B1 were 4.7 nM and 652 nM, respectively.

As for `[2H]C([2H])([2H])N1Cc2c(ccc(Nc3cc([C@@H]4CC[C@H](OC(=O)NC(C)C)C4)[nH]n3)c2F)S1(=O)=O` (single isomer, unassigned) [Example 129b, cis-3-(3-((4-fluoro-2-(methyl-d3)-1,1-dioxido-2,3-dihydrobenzo[d]isothiazol-5-yl)amino)-1H-pyrazol-5-yl)cyclopentyl isopropylcarbamate], the figures for the IC50 against CDK2/Cyclin E1 and at CDK1/Cyclin B1 were 2.6 nM and 185 nM, respectively.

Consider `[2H]C([2H])([2H])N1Cc2c(ccc(Nc3cc([C@@H]4CC[C@H](OC(=O)NC5(C)CC5)C4)[nH]n3)c2F)S1(=O)=O` (single isomer, unassigned) [Example 132a, cis-3-(3-((4-fluoro-2-(methyl-d3)-1,1-dioxido-2,3-dihydrobenzo[d]isothiazol-5-yl)amino)-1H-pyrazol-5-yl)cyclopentyl(1-methylcyclopropyl)carbamate], for which the IC50 at CDK2/Cyclin E1 turned out to be 2.2 nM; at CDK1/Cyclin B1, 206 nM.

As for `[2H]C([2H])([2H])N1Cc2c(ccc(Nc3cc([C@@H]4CC[C@H](OC(=O)NC5(C)CC5)C4)[nH]n3)c2F)S1(=O)=O` (single isomer, unassigned) [Example 132b, cis-3-(3-((4-fluoro-2-(methyl-d3)-1,1-dioxido-2,3-dihydrobenzo[d]isothiazol-5-yl)amino)-1H-pyrazol-5-yl)cyclopentyl(1-methylcyclopropyl)carbamate], the IC50 against CDK2/Cyclin E1 came to 1.9 nM; against CDK1/Cyclin B1, 65 nM.

As for `CC(C)NC(=O)O[C@H]1CC[C@@H](c2cc(Nc3ccc4c(c3F)CN(C3COC3)S4(=O)=O)n[nH]2)C1` (single isomer, unassigned) [Example 133a, cis-3-(3-((4-fluoro-2-(oxetan-3-yl)-1,1-dioxido-2,3-dihydrobenzo[d]isothiazol-5-yl)amino)-1H-pyrazol-5-yl)cyclopentyl isopropylcarbamate], the values for the 50% inhibitory concentration (IC50) at CDK2/Cyclin E1 and against CDK1/Cyclin B1 were 24 nM and 1080 nM, respectively.

In the case of `CC(C)NC(=O)O[C@H]1CC[C@@H](c2cc(Nc3ccc4c(c3F)CN(C3COC3)S4(=O)=O)n[nH]2)C1` (single isomer, unassigned) [Example 133b, cis-3-(3-((4-fluoro-2-(oxetan-3-yl)-1,1-dioxido-2,3-dihydrobenzo[d]isothiazol-5-yl)amino)-1H-pyrazol-5-yl)cyclopentyl isopropylcarbamate], the IC50 was found to be 8.6 nM against CDK2/Cyclin E1 and 456 nM against CDK1/Cyclin B1.

On to `CC[C@H](C)NC(=O)O[C@H]1CC[C@@H](c2cc(Nc3ccc4c(c3F)CN(C3COC3)S4(=O)=O)n[nH]2)C1` (single isomer, unassigned) [Example 134a], for which the figures for the IC50 on CDK2/Cyclin E1 and against CDK1/Cyclin B1 were 3.8 nM and 488 nM, respectively.

In the case of `CC[C@H](C)NC(=O)O[C@H]1CC[C@@H](c2cc(Nc3ccc4c(c3F)CN(C3COC3)S4(=O)=O)n[nH]2)C1` (single isomer, unassigned) [Example 134b], the IC50 worked out at 1.3 nM against CDK2/Cyclin E1 and 120 nM at CDK1/Cyclin B1.

`CCCNC(=O)O[C@@H]1CC[C@H](c2cc(Nc3ccc4c(c3F)CNS4(=O)=O)n[nH]2)C1` (single isomer, unassigned) [Example 138a]: the IC50 against CDK2/Cyclin E1 amounted to 2.6 nM; against CDK1/Cyclin B1, 237 nM.

Turning to `CCCNC(=O)O[C@H]1CC[C@@H](c2cc(Nc3ccc4c(c3F)CNS4(=O)=O)n[nH]2)C1` (single isomer, unassigned) [Example 138b], the results for the IC50 at CDK2/Cyclin E1 and at CDK1/Cyclin B1 were 1.5 nM and 60 nM, respectively.

As to `CC[C@H](C)NC(=O)O[C@H]1CC[C@@H](c2cc(Nc3ccc4c(c3F)CNS4(=O)=O)n[nH]2)C1` (single isomer, unassigned) [Example 139a], the values for the IC50 on CDK2/Cyclin E1 and at CDK1/Cyclin B1 were 1.2 nM and 223 nM, respectively.

With `CC[C@H](C)NC(=O)O[C@H]1CC[C@@H](c2cc(Nc3ccc4c(c3F)CNS4(=O)=O)n[nH]2)C1` (single isomer, unassigned) [Example 139b], the IC50 against CDK2/Cyclin E1 was 0.9 nM; on CDK1/Cyclin B1, 52 nM.

Regarding `CC1(NC(=O)O[C@H]2CC[C@@H](c3cc(Nc4ccc5c(c4F)CNS5(=O)=O)n[nH]3)C2)CC1` (single isomer, unassigned) [Example 140a, cis-3-(3-((4-fluoro-1,1-dioxido-2,3-dihydrobenzo[d]isothiazol-5-yl)amino)-1H-pyrazol-5-yl)cyclopentyl(1-methylcyclopropyl)carbamate], the IC50 against CDK2/Cyclin E1 is 1.1 nM; against CDK1/Cyclin B1, 97 nM.

As for `CC1(NC(=O)O[C@H]2CC[C@@H](c3cc(Nc4ccc5c(c4F)CNS5(=O)=O)n[nH]3)C2)CC1` (single isomer, unassigned) [Example 140b, cis-3-(3-((4-fluoro-1,1-dioxido-2,3-dihydrobenzo[d]isothiazol-5-yl)amino)-1H-pyrazol-5-yl)cyclopentyl(1-methylcyclopropyl)carbamate], the values for the IC50 against CDK2/Cyclin E1 and at CDK1/Cyclin B1 were 1.4 nM and 38 nM, respectively.

For `O=C(NC1CCC(O)CC1)O[C@H]1CC[C@@H](c2cc(Nc3ccc4c(c3F)CNS4(=O)=O)n[nH]2)C1` (single isomer, unassigned) [Example 142, cis-3-(3-((4-fluoro-1,1-dioxido-2,3-dihydrobenzo[d]isothiazol-5-yl)amino)-1H-pyrazol-5-yl)cyclopentyl(4-hydroxycyclohexyl)carbamate], the IC50 at CDK2/Cyclin E1 came to 1.2 nM; against CDK1/Cyclin B1, 46 nM.

Consider `O=C(NC1CCC(O)CC1)O[C@H]1CC[C@@H](c2cc(Nc3ccc4c(c3F)CNS4(=O)=O)n[nH]2)C1` (single isomer, unassigned) [Example 143, cis-3-(3-((4-fluoro-1,1-dioxido-2,3-dihydrobenzo[d]isothiazol-5-yl)amino)-1H-pyrazol-5-yl)cyclopentyl(4-hydroxycyclohexyl)carbamate], for which the IC50 at CDK2/Cyclin E1 came to 4.9 nM; against CDK1/Cyclin B1, 242 nM.

On to `O=C(NCCC(F)(F)F)O[C@H]1CC[C@@H](c2cc(Nc3ccc4c(c3F)CNS4(=O)=O)n[nH]2)C1` (single isomer, unassigned) [Example 154a, cis-3-(3-((4-fluoro-1,1-dioxido-2,3-dihydrobenzo[d]isothiazol-5-yl)amino)-1H-pyrazol-5-yl)cyclopentyl(3,3,3-trifluoropropyl)carbamate], for which the values for the IC50 against CDK2/Cyclin E1 and at CDK1/Cyclin B1 were 2.3 nM and 187 nM, respectively.

As to `O=C(NCCC(F)(F)F)O[C@H]1CC[C@@H](c2cc(Nc3ccc4c(c3F)CNS4(=O)=O)n[nH]2)C1` (single isomer, unassigned) [Example 154b, cis-3-(3-((4-fluoro-1,1-dioxido-2,3-dihydrobenzo[d]isothiazol-5-yl)amino)-1H-pyrazol-5-yl)cyclopentyl(3,3,3-trifluoropropyl)carbamate], the IC50 against CDK2/Cyclin E1 stood at 3.5 nM; on CDK1/Cyclin B1, 69 nM.

As to `COCC1(NC(=O)O[C@H]2CC[C@@H](c3cc(Nc4ccc5c(c4F)CNS5(=O)=O)n[nH]3)C2)CC1` (single isomer, unassigned) [Example 158a, cis-3-(3-((4-fluoro-1,1-dioxido-2,3-dihydrobenzo[d]isothiazol-5-yl)amino)-1H-pyrazol-5-yl)cyclopentyl(1-(methoxymethyl)cyclopropyl)carbamate], the IC50 amounted to 5.3 nM against CDK2/Cyclin E1 and 799 nM against CDK1/Cyclin B1.

The record behind these values is patent publication US20260297080A1, “BICYCLIC COMPOUNDS AS CDK INHIBITORS” (BeOne Medicines I GmbH, priority 2022, published 2026).
